Measurements published in PubChem BioAssay AID2137 (Broad Institute, 2009).
“And” between values parts separate entries of the source, which are not always exact repeats. Identical values can stand only once. Results filed as inconclusive are left out. The source made the active and inactive calls.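 How the source made its calls: active means IC50 at most ten times the top tested dose; inconclusive means flat fit with 30 to 70% activity, or an invalid poor fit; inactive means the rest.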

Target: S. pyogenes M1 GAS streptokinase expression, plasminogen activation OD405
Experiment: reduced streptokinase-driven plasminogen activation (OD405), dose response, streptokinase expression inhibitor project, absorbance readout, M1 GAS (AID 2137)

Row | Structure (SMILES) | IC50
1 | CC(C)c1ccc(NC(=O)c2cc(S(=O)(=O)NCC3COc4ccccc4O3)ccc2F)cc1 (stereo not given) | 3.65 µM
2 | CCOC(=O)c1c(NC(=O)c2cccs2)sc(CC)c1-c1cccs1 | 21.8 µM
3 | FC(F)(F)c1cccc(-c2cc3ccccc3nc2N2CCCC2)c1 | 3.94 µM
4 | O=C(CSc1nc(-c2ccc(Cl)cc2)[nH]c(=O)n1)Nc1cccc(Cl)c1 | 3.54 µM
5 | CCC1CCCCN1S(=O)(=O)c1ccc(NC(=O)c2nc(S(C)(=O)=O)ncc2Cl)cc1 (stereo not given) | 1.17 µM
6 | Cc1ccc(C(=O)n2c3ccccc3c3ccccc32)cc1 | 2.89 µM
7 | O=C(c1ccc(OC(F)(F)F)cc1)n1c2ccccc2c2ccccc21 | 6.36 µM
8 | O=C(c1ccc(Cl)cc1)n1c2ccccc2c2ccccc21 | 18.2 µM
9 | CC1CCN(C(=O)N2c3ccccc3Sc3ccccc32)CC1 | 15 µM
10 | Cc1ccc(C(=O)C(c2ccccc2)N2Cc3ccccc3C2=N)cc1 (stereo not given) | 8.38 µM
11 | COc1ccc(Sc2ccc(NC(=O)c3ccccc3Cl)cc2C#N)cc1 | 2.27 µM
12 | CN1C(=O)/C(=C\c2cccn2-c2ccc3ccccc3c2)C(=O)NC1=S | 5.42 µM
13 | CCN(CC)C(=S)SCC(=O)Nc1nc(-c2ccccc2)c(-c2ccccc2)o1 | 20.5 µM
14 | CC1CC(C)CN(c2ncc3c(n2)CC(c2ccccc2Cl)CC3=O)C1 (stereo not given) | 2.26 µM
15 | Cc1noc(C)c1CSc1nc2sc(C)c(C)c2c(=O)n1C1CCCC1 | 3.13 µM
16 | CCCOc1ccc(-c2nc(OC)c3ccccc3n2)cc1 | 4.03 µM
17 | N#Cc1ccc(C(=O)n2c3ccccc3c3ccccc32)cc1 | 57.7 µM
18 | COc1ccc(-c2csc3ncnc(N4CCN(c5ccccc5Cl)CC4)c23)cc1 | 6.67 µM
19 | CN(C)c1ccc(C(=O)n2c3ccccc3c3ccccc32)cc1 | 4.09 µM
20 | O=C(CSc1cccs1)N1c2ccccc2Sc2ccccc21 | 33.8 µM
21 | COc1ccc(SCC(=O)N2c3ccccc3Sc3ccccc32)cc1 | 6.54 µM
22 | O=C(CSc1ccccc1)N1c2ccccc2Sc2ccccc21 | 9.11 µM
23 | COc1cccc(C(=O)n2c3ccccc3c3ccccc32)c1 | 13.7 µM
24 | COC(=O)c1ccccc1NC(=O)c1nc(S(=O)(=O)Cc2ccccc2)ncc1Cl | 3.37 µM
25 | Cc1ccc(C(=O)N2c3ccccc3Sc3ccccc32)cc1 | 46.5 µM

Row | Structure (SMILES) | IC50
26 | Clc1cccc(Cl)c1CSc1nnc(/C=C/c2ccccc2)o1 | 4.39 µM
27 | CC(=O)N(C)c1ccc(OCC(O)Cn2c3ccc(Cl)cc3c3cc(Cl)ccc32)cc1 (stereo not given) | 4.94 µM
28 | FC(F)(F)c1nc(N2CCN(c3ccccc3)CC2)nc2c1CCCCC2 | 1.73 µM
29 | O=C(NC(=S)Nc1ccccc1N1CCCC1)c1ccccc1Br | 23.6 µM
30 | COc1ccc2oc(C(=O)N3CCN(C(c4ccccc4)c4ccccc4)CC3)c(C)c2c1 | 24.9 µM
31 | O=C(CSc1ccncc1)N1c2ccccc2Sc2ccccc21 | 83.6 µM
32 | O=C(Nc1cc(S(=O)(=O)Nc2ccc(Cl)cc2)ccc1N1CCCCC1)c1ccc(F)cc1 | 4 µM
33 | CCCCn1c(=O)c(C(=O)NCc2ccccc2)c(O)c2ccccc21 | > 500 µM (inactive)
34 | Cc1ccc(/C=C/c2ccc(=O)n(Cc3ccccc3Cl)n2)cc1 | 14.2 µM
35 | Cc1cc(C)c(NC(=O)c2oc3ccccc3c2COc2ccccc2)c(C)c1 | 98.8 µM
36 | O=C(c1ccccc1C(F)(F)F)n1c2ccccc2c2ccccc21 | 6.62 µM
37 | Cc1ccc(SCC(=O)N2c3ccccc3Sc3ccccc32)cc1 | 7.6 µM and 5.6 µM
38 | Cn1c(=O)c2c(nc(SCc3ccccc3)n2Cc2ccc(Cl)cc2)n(C)c1=O | 5.9 µM
39 | Cc1cc(C)c2nc(-c3ccncc3)cc(C(=O)N3CCN(Cc4ccccc4Cl)CC3)c2c1 | 9.54 µM
40 | O=C(c1ccc(F)cc1)n1c2ccccc2c2ccccc21 | 6.27 µM
41 | O=C(CSc1ccc(Cl)cc1)N1c2ccccc2Sc2ccccc21 | 3.1 µM
42 | CC[C@@H](C)[C@H](NC(=O)OC(C)(C)C)c1nnc(S(=O)(=O)Cc2cc(C)ccc2C)o1 | 4.15 µM
43 | CC(C)(C)N/N=C1\CC(c2ccccc2)Oc2ccccc21 (stereo not given) | 7.95 µM
44 | Cc1cc(C(=O)OC(C(=O)Nc2cccc(C(F)(F)F)c2)c2ccccc2)c(C)o1 (stereo not given) | 7.09 µM
45 | COc1ccc(-c2nc(-c3cccs3)c(-c3cccs3)[nH]2)cc1OC | 5.93 µM
46 | COc1ccc(Nc2ncnc3scc(-c4ccc(OC)cc4)c23)cc1 | 5.7 µM
47 | FC(F)(F)c1cc(-c2ccco2)nc(NCc2ccc(Cl)cc2)n1 | > 500 µM (inactive)
48 | COCc1cc(Sc2c(Cl)cccc2Cl)nc(-c2ccccc2)n1 | 7.59 µM
49 | Cc1cc2oc(=O)cc(CN(C)Cc3ccccc3)c2cc1C(C)C | 9.18 µM
50 | C=CCn1c(SCC#N)nc2c(c1=O)C(C)(C)Cc1ccccc1-2 | 10.1 µM
